SMILES strings stand for the structures.

T1 sequence (Q16539 whole entry): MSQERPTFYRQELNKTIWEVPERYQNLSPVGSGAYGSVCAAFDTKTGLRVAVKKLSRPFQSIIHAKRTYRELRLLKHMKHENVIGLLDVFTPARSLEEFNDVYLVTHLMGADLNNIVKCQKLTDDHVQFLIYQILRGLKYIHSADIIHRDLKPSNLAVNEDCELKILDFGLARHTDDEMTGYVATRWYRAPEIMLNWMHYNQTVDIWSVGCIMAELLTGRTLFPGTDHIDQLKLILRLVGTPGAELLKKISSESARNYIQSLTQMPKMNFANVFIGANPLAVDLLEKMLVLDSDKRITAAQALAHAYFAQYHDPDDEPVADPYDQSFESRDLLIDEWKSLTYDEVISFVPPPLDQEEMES

One assay concerns the target T1, phospho p-38 alpha kinase (Homo sapiens, UniProt Q16539).
T1 construct: purchased Panvera
As to the kind of experiment: P-38 alpha kinase assay (spectrophotometric, pyruvate kinase/lactate dehydrogenase coupled). The class given is biochemical. The conditions noted are these: Table 2; rates from […] to 2 h time frame. How it is done:
In this assay, the oxidation of NADH was continuously measured spectrophometrically. […] The reaction was initiated by adding ATP. The absorption at 340 nm was monitored continuously for up to 4 hours at 30° C. on Polarstar Optima plate reader (BMG). The kinase activity (reaction rate) was calculated from the slope at the time frame from 1.5 h to 2 h.
For inhibition determinations, test compounds were incubated with the reaction mixture for ˜5 min before adding ATP to start the reaction. […] IC50 values were calculated from a series of % inhibition values determined at a range of concentrations of each inhibitor using Prism to process the data and fit inhibition curves. Generally, the rates obtained at the time frame of 1.5 h to 2 h were used for these calculations.
Take `CC(C)(C)c1cc(NC(=O)Nc2ccc(Cl)cc2)n(-c2cccc(CO)c2)n1` [Example F]: the IC50 (in general, the point on the concentration scale where inhibition reaches its midpoint) is 437 nM. That is a sub-micromolar value.

The same assay, now with this note: Table 3; rates from […] to 2 h time frame.
Compound `CC(C)(C)c1cc(NC(=O)Nc2cccc(F)c2F)n(-c2ccc(CC(=O)O)cc2)n1` [Example 307, 2-(4-(3-t-butyl-5-(3-(2,3-difluorophenyl)ureido)-1H-pyrazol-1-yl)-phenyl)acetic acid] gave an IC50 of 49 nM.
With `CC(C)(C)c1cc(NC(=O)Nc2ccc(Cl)cc2)n(-c2cccc(CN3C(=O)NC(=O)C3=O)c2)n1` [Example 481, 1-{3-t-butyl-2-{3-[(2,4,5-trioxoimidazolidin-1-yl)methyl]phenyl}-1H-pyrazol-3-yl}-3-(4-chlorophenyl)urea], half-maximal inhibition (IC50) was put at 230 nM.
With `CC(C)(C)c1cc(NC(=O)Nc2cccc3ccccc23)n(-c2cccc(CNC(=O)N3CCCC3)c2)n1` [Example 486, 1-(3-t-butyl-1-{3-[(pyrrolidine-1-carboxamido)methyl]phenyl}-1H-pyrazol-5-yl)-3-(naphthalen-1-yl)urea], the IC50 came to 57 nM.
Still for that read-out and setting: as for `CC(C)(C)c1cc(NC(=O)Nc2cccc3ccccc23)n(-c2cccc(CNC(=O)N3CCOCC3)c2)n1` [Example 485, 1-(3-t-butyl-1-{3-[(morpholine-4-carboxamido)methyl]phenyl}-1H-pyrazol-5-yl)-3-(naphthalen-1-yl)urea], the figure is 50 nM.
Compound `COC(=O)COc1ccc(-n2nc(C(C)(C)C)cc2NC(=O)Nc2cccc3ccccc23)cc1` [Example 519, 1-(3-t-butyl-1-(4-(carbomethoxymethyl)oxyphenyl)-1H-pyrazol-5-yl)-3-(naphthalen-1-yl)urea] had an IC50 of 52 nM.
Turning to `CC(C)(C)c1cc(NC(=O)Nc2cccc(Br)c2)n(-c2cccc(CCN)c2)n1` [Example 376, 1-{1-[3-(2-aminoethyl)phenyl]-3-t-butyl-1H-pyrazol-5-yl}-3-(3-bromophenyl)urea], the IC50 is 480 nM.
Turning to `CC(C)(C)c1cc(NC(=O)Nc2ccc(Cl)cc2)n(-c2cccc(C(O)C(F)(F)F)c2)n1` (stereo not drawn) [Example 516, 1-(3-t-butyl-1-(3-(2,2,2-trifluoro-1-hydroxyethyl)phenyl)-1H-pyrazol-5-yl)-3-(4-chlorophenyl)urea], the IC50 came to 450 nM.
In turn, `COc1cccc(-n2nc(C(C)(C)C)cc2NC(=O)Nc2ccc(Cl)c(C(F)(F)F)c2)c1` [Example 316, 1-(3-t-butyl-1-(3-methoxyphenyl)-1H-pyrazol-5-yl)-3-(4-chloro-3-(trifluoromethyl)phenyl)urea] displayed an IC50 of 420 nM.
`COc1cccc(-n2nc(C(C)(C)C)cc2NC(=O)Nc2cccc(Br)c2)c1` [Example 312, 1-(3-t-butyl-1-(3-methoxyphenyl)-1H-pyrazol-5-yl)-3-(3-bromophenyl)urea] displayed an IC50 of 349 nM. The IC50 values of the last two compounds are within 1.5-fold of each other.
The compound `C#CC(O)c1cccc(-n2nc(C(C)(C)C)cc2NC(=O)Nc2cccc3ccccc23)c1` (stereo not drawn) [Example 473, 1-{3-t-butyl-1-[3-(1-hydroxyprop-2-ynyl)phenyl]-1H-pyrazol-5-yl}-3-(naphthalen-1-yl)urea] came in with an IC50 of 4 nM.
For the compound `CN(C)C(=O)NCc1cccc(-n2nc(C(C)(C)C)cc2NC(=O)Nc2cccc3ccccc23)c1` [Example 487, 1-{3-t-butyl-1-[3-(3,3-dimethylureidomethyl)phenyl]-1H-pyrazol-5-yl}-3-(naphthalen-1-yl)urea], the IC50 was 38 nM.
For `COc1cccc(-n2nc(C(C)(C)C)cc2NC(=O)Nc2ccccc2F)c1` [Example 344, 1-[3-t-butyl-1-(3-methoxy-phenyl)-1H-pyrazol-5-yl]-3-(2-fluorophenyl)urea], half-maximal inhibition (IC50) required 180 nM. Against the preceding compound, the IC50 is about 4.7-fold higher.
With `CCOC(=O)C(C)Cc1ccc(-n2nc(C(C)(C)C)cc2NC(=O)Nc2cccc3ccccc23)cc1` (stereo not drawn) [Example 427, ethyl 3-(4-{3-t-butyl-5-[3-(naphthalen-1-yl)ureido]-1H-pyrazol-1-yl}phenyl)-2-methylpropanoate], the IC50 came to 819 nM.
`CC(C)(C)c1cc(NC(=O)Nc2cccc(F)c2F)n(-c2ccc(CO)cc2)n1` [Example 418, 1-{3-t-butyl-1-[4-(hydroxymethyl)phenyl]-1H-pyrazol-5-yl}-3-(2,3-difluoro-phenyl)urea] showed an IC50 of 75 nM.
Still for that read-out and setting: the value for `CC(C)(C)c1cc(NC(=O)Nc2cccc(Br)c2)n(-c2cccc(C#N)c2)n1` [Example 356, 1-(3-t-butyl-1-(3-cyanophenyl)-1H-pyrazol-5-yl)-3-(3-bromophenyl)urea] was 59 nM.
Regarding `CC(C)(C)c1cc(NC(=O)Nc2cccc(Cl)c2Cl)n(-c2cccc(CO)c2)n1` [Example 475, 1-[3-t-butyl-1-(3-hydroxymethyl-phenyl)-1H-pyrazol-5-yl]-3-(2,3-dichlorophenyl)-urea], the IC50 was 10 nM.
In the case of `CC(O)c1ccc(-n2nc(C(C)(C)C)cc2NC(=O)Nc2cccc3ccccc23)cc1` (stereo not drawn) [Example 463, 1-{3-t-butyl-1-[4-(1-hydroxyethyl)phenyl]-1H-pyrazol-5-yl}-3-(naphthalen-1-yl)urea], the IC50 was determined as 56 nM.
`COc1cccc(NC(=O)Nc2cc(C(C)(C)C)nn2-c2cccc(CCN)c2)c1` [Example 382, 1-{1-[3-(2-aminoethyl)phenyl]-3-t-butyl-1H-pyrazol-5-yl}-3-(3-methoxyphenyl)urea] yielded an IC50 of 880 nM.
`O=C(Nc1ccc(Cl)cc1)Nc1cc(C(F)(F)F)nn1-c1ccc(CO)cc1` [Example 442, 1-(4-chlorophenyl)-3-{3-(trifluoromethyl)-1-[4-(hydroxyl-methyl)phenyl]-1H-pyrazol-5-yl}urea] came in with an IC50 of 3010 nM.
The same measure, in the same setting: the value for `CCOC(=O)Cc1ccc(-n2nc(C(C)(C)C)cc2NC(=O)Nc2cccc(Cl)c2Cl)cc1` [Example 421] was 14.7 nM; that for `CC(C)(C)c1cc(NC(=O)Nc2ccc3c(c2)OCO3)n(-c2cccc(C#N)c2)n1` [Example 357, 1-(benzo[d][1,3]dioxol-5-yl)-3-(3-t-butyl-1-(3-cyanophenyl)-1H-pyrazol-5-yl)urea] was 130 nM.
As to `Cn1[nH]c(=O)n(Cc2cccc(-n3nc(C(C)(C)C)cc3NC(=O)Nc3cccc(Cl)c3Cl)c2)c1=O` [Example 511, 1-{5-t-butyl-2-[3-(1-methyl-3,5-dioxo-[1,2,4]triazolidin-4-ylmethyl)-phenyl]-2H-pyrazol-3-yl}-3-(2,3-dichloro-phenyl)-urea], half-maximal inhibition (IC50) required 24 nM.
With `COc1cccc(-n2nc(C(C)(C)C)cc2NC(=O)Nc2ccsc2)c1` [Example 327, 1-(3-t-butyl-1-(3-methoxyphenyl)-1H-pyrazol-5-yl)-3-(thiophen-3-yl)urea], the IC50 is 810 nM.
As for `COc1cccc(-n2nc(C(C)(C)C)cc2NC(=O)Nc2cccc(F)c2)c1` [Example 310, 1-(3-t-butyl-1-(3-methoxyphenyl)-1H-pyrazol-5-yl)-3-(3-fluorophenyl)urea], inhibition was half-maximal at 130 nM (IC50).
On the same count and under the same terms, as for `CC(C)(C)c1cc(NC(=O)Nc2ccc(Cl)cc2)n(-c2cccc(CNC(=O)N3CCCCC3)c2)n1` [Example 488, 1-(3-t-butyl-1-{3-{(piperidine-1-carboxamido)methyl]phenyl}-1H-pyrazol-5-yl)-3-(4-chlorophenyl)urea], the figure is 540 nM.

The assay is the same for the next values; noted with them: read-out: % Inhibition @ concentration, Table 3; at 0.1 uM.
Turning to `COc1ccc(-n2nc(C(C)(C)C)cc2NC(=O)Nc2ccccc2F)cc1` [Example 346, 1-[3-t-butyl-1-(4-methoxyphenyl)-1H-pyrazol-5-yl]-3-(2-fluorophenyl)urea], the inhibition at 0.1 µM worked out at 19%.
Consider `CCOC(=O)c1cccc(-n2nc(C(C)(C)C)cc2NC(=O)Nc2ccc3c(c2)OCO3)c1` [Example 396, ethyl 3-{5-[3-(benzo[d][1,3]dioxo-5-yl)ureido]-3-t-butyl-1H-pyrazol-1-yl}benzoate], for which the inhibition at 0.1 µM is 3%.
In the case of `COc1ccc(-n2nc(C(C)(C)C)cc2NC(=O)Nc2cccc(OC)c2)cc1` [Example 348, 1-[3-t-butyl-1-(4-methoxyphenyl)-1H-pyrazol-5-yl]-3-(3-methoxy-phenyl)urea], the inhibition at 0.1 µM came to 17%.

The assay is the same for the next values; noted with them: read-out: % Inhibition @ concentration, Table 3; at 1 uM.
As for `CN1CCN(C(=O)NCc2cccc(-n3nc(C(C)(C)C)cc3NC(=O)Nc3ccc(Cl)cc3)c2)CC1` [Example 493, 1-(3-t-butyl-1-{3-[(1-methylpiperazine-4-carboxamido)methyl]phenyl}-1H-pyrazol-5-yl)-3-(4-chlorophenyl)urea], the inhibition at 1 µM stood at 36%.
As to `COc1ccc(-n2nc(C(C)(C)C)cc2NC(=O)Nc2ccccc2F)cc1` [Example 346, 1-[3-t-butyl-1-(4-methoxyphenyl)-1H-pyrazol-5-yl]-3-(2-fluorophenyl)urea], the inhibition at 1 µM is 63%.
Regarding `CCOC(=O)c1cccc(-n2nc(C(C)(C)C)cc2NC(=O)Nc2ccc3c(c2)OCO3)c1` [Example 396, ethyl 3-{5-[3-(benzo[d][1,3]dioxo-5-yl)ureido]-3-t-butyl-1H-pyrazol-1-yl}benzoate], the inhibition at 1 µM came to 56%.
On to `CC(C)(C)c1cc(NC(=O)Nc2cccc(Br)c2)n(-c2cccc(CN)c2)n1` [Example 384, 1-{1-[3-(aminomethyl)phenyl]-3-t-butyl-1H-pyrazol-5-yl}-3-(3-bromophenyl)urea], for which the inhibition at 1 µM amounted to 72%.
In the case of `COc1ccc(-n2nc(C(C)(C)C)cc2NC(=O)Nc2cccc(OC)c2)cc1` [Example 348, 1-[3-t-butyl-1-(4-methoxyphenyl)-1H-pyrazol-5-yl]-3-(3-methoxy-phenyl)urea], the inhibition at 1 µM stood at 47%.

The same assay, now with this note: read-out: % Inhibition @ concentration, Table 3; at 10 uM.
Consider `CN1CCN(C(=O)NCc2cccc(-n3nc(C(C)(C)C)cc3NC(=O)Nc3ccc(Cl)cc3)c2)CC1` [Example 493, 1-(3-t-butyl-1-{3-[(1-methylpiperazine-4-carboxamido)methyl]phenyl}-1H-pyrazol-5-yl)-3-(4-chlorophenyl)urea], for which the inhibition at 10 µM worked out at 73%.
For the compound `CCOC(=O)CCc1cccc(-n2nc(C(C)(C)C)cc2NC(=O)c2ccc3ccccc3c2)c1` [Example 154, 3-(3-{3-t-butyl-5-[(naphthalene-2-carbonyl)-amino]-pyrazol-1-yl}-phenyl)-propionic acid ethyl ester], the inhibition at 10 µM worked out at 21%.
For `CCOC(=O)CCc1cccc(-n2nc(C)cc2NC(=O)Nc2ccc(Cl)cc2)c1` [Example 531, 3-(3-{5-[3-(4-chloro-phenyl)-ureido]-3-methyl-pyrazol-1-yl}-phenyl)-propionic acid ethyl ester], the inhibition at 10 µM came to 14%.
Regarding `CC(C)(C)c1cc(NC(=O)Nc2cccc(Br)c2)n(-c2cccc(CN)c2)n1` [Example 384, 1-{1-[3-(aminomethyl)phenyl]-3-t-butyl-1H-pyrazol-5-yl}-3-(3-bromophenyl)urea], the inhibition at 10 µM amounted to 96%.
With `CC(C)(C)c1cc(NC(=O)c2nccc3ccccc23)n(-c2cccc(CCC(=O)O)c2)n1` [Example 150, 3-(3-{3-t-butyl-5-[(isoquinoline-1-carbonyl)-amino]-pyrazol-1-yl}-phenyl)-propionic acid], the inhibition at 10 µM was 53%.

For the origin of these results see patent publication US20070191336A1 (priority 2003, published 2007).
